Experiment: Delivery across full thickness murine skin in a Franz diffusion cell from drug reservoir with integrated PMVMA microneedle array
Settings: reservoir 19.0 mg TMP cm^-2 attached to PMVMA microneedle array; receiver compartment followed over 25 hours; FIG. 11
Protocol: In this study, a matrix-type drug reservoir containing 19.0 mg TMP cm^−2 was prepared and attached to a poly(methylvinylether/maleic acid-co-glyceride) (PMVMA) microneedle array. This system was pressed into full thickness murine skin, mounted as the barrier membrane in a Franz diffusion cell, with the aid of gentle pressure. TMP appearing in the receiver compartment was determined by fluorescence spectroscopy over a period of 25 hours.
An identical experiment to that described in Example 3 was performed again. The only difference was that the small very water soluble photosensitiser precursor 5-aminolevulinc acid (ALA, MW 167 Da) was used instead of TMP.

C[n+]1ccc(-c2c3nc(c(-c4cc[n+](C)cc4)c4ccc([nH]4)c(-c4cc[n+](C)cc4)c4nc(c(-c5cc[n+](C)cc5)c5ccc2[nH]5)C=C4)C=C3)cc1.Cc1ccc(S(=O)(=O)[O-])cc1.Cc1ccc(S(=O)(=O)[O-])cc1.Cc1ccc(S(=O)(=O)[O-])cc1.Cc1ccc(S(=O)(=O)[O-])cc1 [TMP, meso-Tetra (N-methyl-4-pyridyl) porphine tetra tosylate]
delivery of TMP across full thickness skin: sustained delivery of TMP across full thickness skin is possible
